Laboratory results published in ChEMBL document CHEMBL5584292, “Targeted Isolation of Antiviral Labdane Diterpenes from the Bark of Neo-uvaria foetida (Annonaceae) using LC-MS/MS-Based Molecular Networking” (J Nat Prod, 2024).
Activity calls are given as the source filed them. The rule behind the calls is not given here.

Experiments:
Human coronavirus 229E [1] = assay: Antiviral activity against Human coronavirus 229E expressing luciferase reporter gene infected in Huh-7 cells assessed as reduction in viral replication incubated for 24 hrs by renilla luciferase based luminometer assay; type: functional, organism-based; settings: for IC50: Huh-7, 24 h
[2] = Cytotoxicity against African green monkey Vero E6 cells assessed as reduction in cell viability incubated for 48 hrs by MTS assay; type: toxicity, cell-based, Vero C1008; settings: chlorocebus sabaeus
[3] = Selectivity index, ratio of CC50 for cytotoxicity against African green monkey Vero E6 cells to IC50 for antiviral activity against SARS-CoV-2 infected in African green monkey Vero E6 cells; type: toxicity, cell-based; settings: read-out: Ratio CC50/IC50
[4] = Selectivity index, ratio of CC50 for cytotoxicity against human Huh-7 cells to IC50 for antiviral activity against Human coronavirus 229E expressing luciferase reporter gene infected in Huh-7 cells; type: toxicity, cell-based; settings: read-out: Ratio CC50/IC50
SARS-CoV-2 = assay: Antiviral activity against SARS-CoV-2 infected in African green monkey Vero E6 cells assessed as reduction in viral replication incubated for 48 hrs by Alexa Fluor 488 staining based flow cytometric analysis; type: functional, organism-based, Severe acute respiratory syndrome coronavirus 2
[5] = Cytotoxicity against human Huh-7 cells assessed as reduction in cell viability incubated for 48 hrs by MTS assay; type: toxicity, cell-based
Zika virus [6] = assay: Antiviral activity against ZIKV expressing GFP infected in African green monkey Vero E6 cells assessed as reduction in viral replication preincubated for 2 hrs without compound followed by compound addition and measured after 22 hrs by flow cytometric analysis; type: functional, organism-based
[7] = Cytotoxicity against human Huh-7 cells assessed as maximum non-toxic concentration at incubated for 48 hrs by MTS assay; type: toxicity, cell-based; settings: read-out: MNTD>90
Zika virus [8] = assay: Antiviral activity against ZIKV expressing GFP infected in African green monkey Vero E6 cells assessed as reduction in viral replication preincubated for 2 hrs followed by dilution to sub-therapeutic level and measured after 24 hrs by flow cytometric analysis; type: functional, organism-based; settings: time 26.0 hrs
Zika virus [9] = assay: Antiviral activity against ZIKV expressing GFP infected in African green monkey Vero E6 cells assessed as reduction in viral replication preincubated for 2 hrs followed by compound wash out and measured after 22 hrs by flow cytometric analysis; type: functional, organism-based; settings: time 24.0 hrs
Zika virus [10] = assay: Antiviral activity against ZIKV expressing GFP infected in African green monkey Vero E6 cells assessed as reduction in viral replication incubated for 24 hrs by flow cytometric analysis; type: functional, organism-based
[11] = Selectivity index, ratio of CC50 for cytotoxicity against African green monkey Vero E6 cells to IC50 for antiviral activity against ZIKV expressing GFP infected in African green monkey Vero E6 cells; type: toxicity, cell-based; settings: read-out: Ratio CC50/IC50
Human coronavirus 229E [12] = assay: Antiviral activity against Human coronavirus 229E expressing luciferase reporter gene infected in Huh-7 cells assessed as reduction in viral replication at 6 uM incubated for 24 hrs by renilla luciferase based luminometer assay relative to control; type: functional; parameters: scale not given: the % may be the effect or the level left
Zika virus [13] = assay: Antiviral activity against ZIKV expressing GFP infected in African green monkey Vero E6 cells assessed as reduction in viral replication at 20 uM incubated for 24 hrs by flow cytometric analysis relative to control; type: functional; parameters: scale not given: the % may be the effect or the level left
Huh-7 = assay: Cytotoxicity against human Huh-7 cells assessed as reduction in cell viability at 3 to 400 uM incubated for 48 hrs by MTS assay; type: toxicity, cell-based; settings: huh-7, 48 h, dose 3-400 µM
[14] = Severe acute respiratory syndrome coronavirus 2, Vero C1008, 48 h, read-out: IC50
[15] = Zika virus, Vero C1008, 24 h, read-out: IC50

Structure (SMILES) | IC50 (Human coronavirus 229E [1]) [µM] | CC50 at 48 h [2] [µM] | selectivity ratio [3] | selectivity ratio [4] | IC50 (SARS-CoV-2; [14]) [µM] | CC50 at 48 h [5] [µM] | Activity (Zika virus [6]) | MNTC at 48 h [7] [µM] | Activity (Human coronavirus 229E [1]) | Activity (Zika virus [8]) | Activity (Zika virus [9]) | IC50 (Zika virus [10]; [15]) [µM] | selectivity ratio [11] | Activity (Human coronavirus 229E [12]) [%] | IC50 (SARS-CoV-2; vero e6) | Activity (Zika virus [13]) [%] | Activity (Huh-7) | IC50 (Zika virus [10]; vero e6)
CCC(CC)COC(=O)[C@H](C)N[P@](=O)(OC[C@H]1O[C@@](C#N)(c2ccc3c(N)ncnn23)[C@H](O)[C@@H]1O)Oc1ccccc1 [REMDESIVIR] | 0.04 | > 100 | 4 | 2250 | 25 | 90 | – | – | – | – | – | – | – | – | – | – | – | –
CC(=O)OC[C@@]12CC[C@H]3C(C)(C)CCC[C@]3(C)[C@H]1C[C@@H](C1=CC(=O)OC1O)O2 (stereo not given in full) | 2.3 | 55.9 | – | 6.2 | – | 14 | Active | 30 | Dose-Dependent Effect | inactive | Active | 14.9 | 3.8 | 80 | Not Active | >90 | Toxic | –
CC1(C)CCC[C@@]2(C)[C@H]1CC[C@]13CO[C@@H]4OC(=O)C=C4[C@H](C[C@@H]12)O3 | 58.8 | > 200 | 2.1 | 3.7 | 93.5 | 215 | – | – | – | – | – | – | – | – | – | – | Toxic | Not Active
CC1(C)CCC[C@@]2(C)[C@H]1CC[C@@]1(CO)O[C@H](C3=CC(=O)OC3O)C[C@@H]12 (stereo not given in full) | 15.8 | 88.3 | – | 3 | – | 46.9 | Active | 6 | – | inactive | Active | 31.9 | 2.8 | – | Not Active | – | Toxic | –
CC1(C)CCC[C@@]2(C)[C@H]1CC[C@]1(CO)O[C@H](C3=CC(=O)OC3O)C[C@@H]12 (stereo not given in full) | 25.3 | 200 | 3.2 | 6.8 | 6.3 | 172 | Active | – | – | inactive | Active | 76 | 2.6 | – | – | – | Toxic | –
CC1(C)CCC[C@@]2(C)[C@H]1CC[C@]1(O)COC(O)([C@@H](O)CC(=O)O)C[C@@H]12 (stereo not given in full) | > 100 | > 200 | – | – | – | 223 | – | – | – | – | – | – | – | – | Not Active | – | Toxic | Not Active
CC1(C)CCC[C@@]2(C)[C@H]1CC[C@]13COC4(CC(=O)O[C@H]4O)[C@H](C[C@@H]12)O3 (stereo not given in full) | > 100 | > 200 | – | – | – | 435 | – | – | – | – | – | – | – | – | Not Active | – | Non-Toxic | Not Active
